Reference: ChEMBL document CHEMBL1641441, “A novel screening model for the molecular drug for diabetes and obesity based on tyrosine phosphatase Shp2” (Bioorg Med Chem Lett, 2011)
The source made the active and inactive calls. The rule behind the calls is not given here.

Experiments:
[1] = target: Tyrosine-protein phosphatase non-receptor type 6 (Homo sapiens) (UniProt P29350); test: Increase of GST-tagged full length Shp1 activity expressed in Escherichia coli BL21 at 10 uM after 30 mins
[2] = target: Dual specificity protein phosphatase 3 (Homo sapiens) (UniProt P51452); test: Increase of GST-tagged full length Vhr activity expressed in Escherichia coli BL21 at 10 uM after 30 mins
Dual specificity protein phosphatase 3 (Homo sapiens), sequence (P51452 whole entry, looked up): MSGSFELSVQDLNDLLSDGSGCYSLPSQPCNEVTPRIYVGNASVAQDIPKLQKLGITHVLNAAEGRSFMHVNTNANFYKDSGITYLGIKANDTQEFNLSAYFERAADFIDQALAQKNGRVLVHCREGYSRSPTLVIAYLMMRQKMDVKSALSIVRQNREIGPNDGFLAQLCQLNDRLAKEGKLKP

[3] = target: T1, Tyrosine-protein phosphatase non-receptor type 7 (Homo sapiens) (UniProt P35236); test: Increase of GST-tagged full length HePTP activity expressed in Escherichia coli BL21 at 10 uM after 30 mins
T1 sequence (whole entry): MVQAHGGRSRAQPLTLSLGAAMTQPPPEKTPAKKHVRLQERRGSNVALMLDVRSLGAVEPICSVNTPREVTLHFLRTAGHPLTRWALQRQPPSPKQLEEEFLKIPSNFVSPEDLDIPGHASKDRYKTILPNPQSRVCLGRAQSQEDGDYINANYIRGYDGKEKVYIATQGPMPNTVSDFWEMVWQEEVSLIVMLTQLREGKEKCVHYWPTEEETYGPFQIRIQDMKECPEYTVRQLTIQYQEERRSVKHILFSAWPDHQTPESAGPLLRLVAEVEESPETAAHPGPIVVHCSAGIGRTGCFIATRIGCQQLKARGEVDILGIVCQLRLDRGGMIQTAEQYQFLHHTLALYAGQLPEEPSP

Tyrosine-protein phosphatase non-receptor type 6 (Homo sapiens), sequence (P29350 whole entry): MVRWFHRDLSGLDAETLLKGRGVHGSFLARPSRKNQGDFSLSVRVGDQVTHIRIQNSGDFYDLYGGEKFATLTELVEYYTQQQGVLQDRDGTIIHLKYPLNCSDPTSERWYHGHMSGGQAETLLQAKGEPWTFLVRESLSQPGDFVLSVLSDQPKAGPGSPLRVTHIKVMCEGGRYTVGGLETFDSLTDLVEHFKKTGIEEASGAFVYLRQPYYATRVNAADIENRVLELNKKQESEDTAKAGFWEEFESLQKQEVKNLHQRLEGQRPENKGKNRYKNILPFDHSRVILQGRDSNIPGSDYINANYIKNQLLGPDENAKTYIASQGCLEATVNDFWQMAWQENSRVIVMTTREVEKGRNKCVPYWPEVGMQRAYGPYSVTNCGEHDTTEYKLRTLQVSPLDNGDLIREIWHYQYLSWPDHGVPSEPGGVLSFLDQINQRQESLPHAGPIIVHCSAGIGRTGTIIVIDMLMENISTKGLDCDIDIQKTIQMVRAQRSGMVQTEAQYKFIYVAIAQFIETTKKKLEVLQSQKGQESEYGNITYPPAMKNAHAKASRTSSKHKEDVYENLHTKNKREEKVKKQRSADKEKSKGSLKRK

- Activity [1]: inactive
- Activity [2]: inactive
- Activity [3]: inactive
Compound: CC1(C)CC[C@]2(C(=O)O)CC[C@]3(C)C(=CC[C@@H]4[C@@]5(C)CC[C@H](O)C(C)(C)[C@@H]5CC[C@]43C)[C@@H]2C1
